Source: the supplement of paper PMC10883282
± gives the standard deviation of the averaged measurements.

System: RD
Test: relative viability vs DMSO control (72 h) (fraction); higher = more viable cells
In short: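 Sarcoma cell lines in 384-well plates, seeded to reach 80–90% confluence, were given compound after 24 h and kept 72 h at 37 °C, 5% CO2, with 0.1% DMSO vehicle and a 5 µM positive control. Relative viability came from ATPLite as percent growth, averaged over up to triplicate wells. On the rescaled values, 1 equals full and 0 equals none.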

Work on Cc1ccc(F)c(NC(=O)Nc2ccc(-c3cccc4[nH]nc(N)c34)cc2)c1 [Linifanib] yielded a relative viability (0.00017 µM) of 1.07 ± 0.027, a relative viability (0.00051 µM) of 1.07 ± 0.028 and a relative viability (0.00152 µM) of 1.08 ± 0.039. For the same molecule, the relative viability (0.00457 µM) was 1.124 ± 0.01, the relative viability (0.01372 µM) was 1.12 ± 0.025 and the relative viability (0.04115 µM) was 1.1 ± 0.033. The relative viability (0.1235 µM) was 1.14 ± 0.018, the relative viability (0.3704 µM) was 1.14 ± 0.031 and the relative viability (1.111 µM) was 1.12 ± 0.031. It also gave a relative viability (3.333 µM) of 1.11 ± 0.042 and a relative viability (10 µM) of 1.13 ± 0.029.
With COCc1c(-c2cc3cc(C)cc(OC)c3s2)c2c(N)ncnn2c1CN1CCNC(=O)C1 [Rogaratinib] the relative viability (0.00017 µM) was 1.03 ± 0.022, the relative viability (0.00051 µM) was 1.09 ± 0.017 and the relative viability (0.00152 µM) was 1.08 ± 0.024. The relative viability (0.00457 µM) was 1.11 ± 0.037, the relative viability (0.01372 µM) was 1.09 ± 0.033 and the relative viability (0.04115 µM) was 1.12 ± 0.016. For the same molecule, the relative viability (0.1235 µM) was 1.1 ± 0.057, the relative viability (0.3704 µM) was 1.08 ± 0.03 and the relative viability (1.111 µM) was 1.07 ± 0.047. It also gave a relative viability (3.333 µM) of 0.923 ± 0.042 and a relative viability (10 µM) of 0.569 ± 0.015.
N#CC[C@H](C1CCCC1)n1cc(-c2ncnc3[nH]ccc23)cn1 [Ruxolitinib] showed a relative viability (0.00017 µM) of 0.965 ± 0.052, a relative viability (0.00051 µM) of 0.972 ± 0.049 and a relative viability (0.00152 µM) of 0.965 ± 0.041. It also gave a relative viability (0.00457 µM) of 0.977 ± 0.059, a relative viability (0.01372 µM) of 0.97 ± 0.034 and a relative viability (0.04115 µM) of 0.979 ± 0.044. The relative viability (0.1235 µM) was 0.973 ± 0.051, the relative viability (0.3704 µM) was 0.965 ± 0.058 and the relative viability (1.111 µM) was 0.976 ± 0.056. The relative viability (3.333 µM) was 0.976 ± 0.092 and the relative viability (10 µM) was 0.895 ± 0.055.
In the case of CCN1CCN(Cc2ccc(Nc3ncc(F)c(-c4cc(F)c5nc(C)n(C(C)C)c5c4)n3)nc2)CC1 [Abemaciclib], the relative viability (0.00017 µM) is reported as 1.12 ± 0.06, the relative viability (0.00051 µM) is reported as 1.14 ± 0.056 and the relative viability (0.00152 µM) is reported as 1.09 ± 0.05. For the same molecule, the relative viability (0.00457 µM) was 1.11 ± 0.054, the relative viability (0.01372 µM) was 1.1 ± 0.059 and the relative viability (0.04115 µM) was 1.07 ± 0.081. It also gave a relative viability (0.1235 µM) of 1.06 ± 0.078, a relative viability (0.3704 µM) of 1.07 ± 0.036 and a relative viability (1.111 µM) of 1.1 ± 0.072. For the same molecule, the relative viability (3.333 µM) was 1.04 ± 0.049 and the relative viability (10 µM) was 0.863 ± 0.039.
CNC(=O)c1cc(Oc2ccc(NC(=O)Nc3ccc(Cl)c(C(F)(F)F)c3)c(F)c2)ccn1 [Regorafenib] gave a relative viability (0.00017 µM) of 1.06 ± 0.017, a relative viability (0.00051 µM) of 1.11 ± 0.028 and a relative viability (0.00152 µM) of 1.13 ± 0.052. The relative viability (0.00457 µM) was 1.14 ± 0.089, the relative viability (0.01372 µM) was 1.13 ± 0.075 and the relative viability (0.04115 µM) was 1.14 ± 0.063. It also gave a relative viability (0.1235 µM) of 1.12 ± 0.04, a relative viability (0.3704 µM) of 1.01 ± 0.058 and a relative viability (1.111 µM) of 0.877 ± 0.069. For the same molecule, the relative viability (3.333 µM) was 0.787 ± 0.05 and the relative viability (10 µM) was 0.558 ± 0.048.
In the case of Nc1cc(C(F)(F)F)c(-c2cc(N3CCOCC3)nc(N3CCOCC3)n2)cn1 [Buparlisib], the relative viability (0.00017 µM) is reported as 1.09 ± 0.015, the relative viability (0.00051 µM) is reported as 1.06 ± 0.025 and the relative viability (0.00152 µM) is reported as 1.09 ± 0.055. The relative viability (0.00457 µM) was 1.08 ± 0.05, the relative viability (0.01372 µM) was 1.07 ± 0.028 and the relative viability (0.04115 µM) was 1.09 ± 0.045. For the same molecule, the relative viability (0.1235 µM) was 1 ± 0.046, the relative viability (0.3704 µM) was 0.868 ± 0.045 and the relative viability (1.111 µM) was 0.428 ± 0.042. It also gave a relative viability (3.333 µM) of 0.133 ± 0.011 and a relative viability (10 µM) of 0.126 ± 0.015.
Molecule CC(C)NC(=O)C1CCC(n2c(NC(=O)c3ccc(F)cc3)nc3ccc(CN4CCC(C(C)(C)O)CC4)cc32)CC1 (centres undefined) [Belizatinib] has a relative viability (0.00017 µM) of 1.1 ± 0.05, a relative viability (0.00051 µM) of 1.09 ± 0.06 and a relative viability (0.00152 µM) of 1.08 ± 0.079. For the same molecule, the relative viability (0.00457 µM) was 1.09 ± 0.02, the relative viability (0.01372 µM) was 1.09 ± 0.041 and the relative viability (0.04115 µM) was 1.09 ± 0.025. The relative viability (0.1235 µM) was 1 ± 0.014, the relative viability (0.3704 µM) was 0.844 ± 0.058 and the relative viability (1.111 µM) was 0.456 ± 0.027. For the same molecule, the relative viability (3.333 µM) was 0.268 ± 0.0066 and the relative viability (10 µM) was 0.122 ± 0.011.
CC1(C)CNc2cc(NC(=O)c3cccnc3NCc3ccncc3)ccc21 [Motesanib] showed a relative viability (0.00017 µM) of 0.967 ± 0.013, a relative viability (0.00051 µM) of 0.964 ± 0.041 and a relative viability (0.00152 µM) of 0.973 ± 0.046. The relative viability (0.00457 µM) was 0.96 ± 0.046, the relative viability (0.01372 µM) was 0.965 ± 0.04 and the relative viability (0.04115 µM) was 0.989 ± 0.051. For the same molecule, the relative viability (0.1235 µM) was 0.962 ± 0.032, the relative viability (0.3704 µM) was 0.975 ± 0.028 and the relative viability (1.111 µM) was 0.996 ± 0.056. The relative viability (3.333 µM) was 1.03 ± 0.034 and the relative viability (10 µM) was 0.987 ± 0.066.
CC(=O)Nc1cccc(-n2c(=O)n(C3CC3)c(=O)c3c(Nc4ccc(I)cc4F)n(C)c(=O)c(C)c32)c1 [Trametinib] was tested, and the relative viability (0.00017 µM) was 1.08 ± 0.027, the relative viability (0.00051 µM) was 1.07 ± 0.064 and the relative viability (0.00152 µM) was 0.971 ± 0.099. For the same molecule, the relative viability (0.00457 µM) was 0.838 ± 0.044, the relative viability (0.01372 µM) was 0.669 ± 0.07 and the relative viability (0.04115 µM) was 0.608 ± 0.051. It also gave a relative viability (0.1235 µM) of 0.584 ± 0.032, a relative viability (0.3704 µM) of 0.558 ± 0.038 and a relative viability (1.111 µM) of 0.556 ± 0.03. For the same molecule, the relative viability (3.333 µM) was 0.523 ± 0.04 and the relative viability (10 µM) was 0.477 ± 0.022.
